Target: T1, G6 polypeptide (Homo sapiens, UniProt Q9BYG0)
T1 construct: In order to obtain a DNA encoding the full-length G6 polypeptide, PCR was carried out; expressed in transfected cells; Triton X-100 cell extract
T1 sequence (Q9BYG0 1-378): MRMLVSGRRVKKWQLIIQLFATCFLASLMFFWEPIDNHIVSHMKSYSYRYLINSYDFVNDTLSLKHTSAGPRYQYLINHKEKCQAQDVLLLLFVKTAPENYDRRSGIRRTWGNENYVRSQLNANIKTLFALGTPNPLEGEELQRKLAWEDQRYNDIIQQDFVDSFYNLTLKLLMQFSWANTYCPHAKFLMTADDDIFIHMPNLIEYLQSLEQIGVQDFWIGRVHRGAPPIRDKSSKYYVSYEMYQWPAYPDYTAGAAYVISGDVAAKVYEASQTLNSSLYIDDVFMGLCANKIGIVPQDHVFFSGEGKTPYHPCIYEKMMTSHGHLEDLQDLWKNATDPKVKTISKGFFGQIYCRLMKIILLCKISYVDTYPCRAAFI
Assay: β1,3-N-acetylglucosaminyltransferase activity of cell extract of Namalwa cells transfected with pAMo-G6, 2-aminobenzamide-labeled oligosaccharide substrates
Type: biochemical
Settings: cell extract (20 μg protein) of pAMo-G6-transfected Namalwa cells; 2-aminobenzamide-labeled substrate; 37° C., 16 hours
Protocol: The transformant cells (about 2×10^7 cells) obtained in Example 6(1) were put into a microtube (1.5 ml: manufactured by Eppendorf), and the cells were collected by centrifugation (550×g, 7 minutes). The cells were washed with 0.9 ml of PBS, the washed cells were suspended in a solution (100 μl) containing 20 mmol/l HEPES (pH 7.2) and 2% Triton X-100 and then the cells were disrupted using a sonicator (Bioruptor; manufactured by COSMO BIO). After the mixture was allowed to stand at 4° C. for 1 hour, the supernatant was obtained by centrifugation (550×g, 7 minutes). The supernatant was used as an enzyme sample.
A β1,3-N-acetylglucosaminyltransferase activity was measured by using this enzyme sample and 2-aminobenzamide-labeled sugar chain substrates. […]
The activity measurement was carried out using known methods [FEBS, 462, 289 (1999), J. Biol. Chem., 269, 14730-14737 (1994), J. Biol. Chem., 267, 23507 (1992), J. Biol. Chem., 267, 2994 (1992)]. Specifically, the reaction was carried out at 37° C. for 16 hours in 20 μl of an assay solution [150 mmol/l MOPS (pH 7.5), 50 mmol/l UDP-GlcNAc (manufactured by SIGMA), 20 mmol/l sodium cacodylate (pH 7.2), 0.4% Triton CF-54, 10 mmol/l MnCl2, 15 mmol/l 2-aminobenzamide-labeled sugar chain substrate, the above cell extract (20 μg as protein)], and then the product was detected by high performance liquid chromatography (HPLC). […]

| ratio of the substrate converted into the product [%] | SMILES |
| --- | --- |
| 3.95 | CC(=O)N[C@H]1[C@H](O[C@H]2[C@@H](O)[C@@H](CO)O[C@@H](O[C@H]3[C@H](O)[C@@H](NC(C)=O)C(O)O[C@@H]3CO)[C@@H]2O)O[C@H](CO)[C@@H](O[C@@H]2O[C@H](CO)[C@H](O)[C@H](O)[C@H]2O)[C@@H]1O (some centres unmarked) [2LN, Galβ1-4GlcNAcβ1-3Galβ1-4GlcNAc] |
| 6.11 | CC(=O)N[C@H]1[C@H](O[C@H]2[C@@H](O)[C@@H](CO)O[C@@H](O[C@H]3[C@H](O)[C@@H](O)C(O)O[C@@H]3CO)[C@@H]2O)O[C@H](CO)[C@@H](O[C@@H]2O[C@H](CO)[C@H](O)[C@H](O)[C@H]2O)[C@@H]1O (mixture of isomers) [LNnT, lacto-N-neotetraose] |
